From ChEMBL document CHEMBL5357068, “Discovery of Novel TLR7 Agonists as Systemic Agent for Combination With aPD1 for Use in Immuno-oncology” (ACS Med Chem Lett, 2024)

How the values were obtained:
[1] = Metabolic stability in human liver microsomes assessed as compound remaining; type: ADME, Microsome
Blood = assay: Induction of MX1 secretion in human whole blood; type: functional, tissue-based
[2] = target: T1, Toll-like receptor 9 (Homo sapiens) (UniProt Q9NR96); assay: Agonist activity at human TLR9
T1 sequence (whole entry): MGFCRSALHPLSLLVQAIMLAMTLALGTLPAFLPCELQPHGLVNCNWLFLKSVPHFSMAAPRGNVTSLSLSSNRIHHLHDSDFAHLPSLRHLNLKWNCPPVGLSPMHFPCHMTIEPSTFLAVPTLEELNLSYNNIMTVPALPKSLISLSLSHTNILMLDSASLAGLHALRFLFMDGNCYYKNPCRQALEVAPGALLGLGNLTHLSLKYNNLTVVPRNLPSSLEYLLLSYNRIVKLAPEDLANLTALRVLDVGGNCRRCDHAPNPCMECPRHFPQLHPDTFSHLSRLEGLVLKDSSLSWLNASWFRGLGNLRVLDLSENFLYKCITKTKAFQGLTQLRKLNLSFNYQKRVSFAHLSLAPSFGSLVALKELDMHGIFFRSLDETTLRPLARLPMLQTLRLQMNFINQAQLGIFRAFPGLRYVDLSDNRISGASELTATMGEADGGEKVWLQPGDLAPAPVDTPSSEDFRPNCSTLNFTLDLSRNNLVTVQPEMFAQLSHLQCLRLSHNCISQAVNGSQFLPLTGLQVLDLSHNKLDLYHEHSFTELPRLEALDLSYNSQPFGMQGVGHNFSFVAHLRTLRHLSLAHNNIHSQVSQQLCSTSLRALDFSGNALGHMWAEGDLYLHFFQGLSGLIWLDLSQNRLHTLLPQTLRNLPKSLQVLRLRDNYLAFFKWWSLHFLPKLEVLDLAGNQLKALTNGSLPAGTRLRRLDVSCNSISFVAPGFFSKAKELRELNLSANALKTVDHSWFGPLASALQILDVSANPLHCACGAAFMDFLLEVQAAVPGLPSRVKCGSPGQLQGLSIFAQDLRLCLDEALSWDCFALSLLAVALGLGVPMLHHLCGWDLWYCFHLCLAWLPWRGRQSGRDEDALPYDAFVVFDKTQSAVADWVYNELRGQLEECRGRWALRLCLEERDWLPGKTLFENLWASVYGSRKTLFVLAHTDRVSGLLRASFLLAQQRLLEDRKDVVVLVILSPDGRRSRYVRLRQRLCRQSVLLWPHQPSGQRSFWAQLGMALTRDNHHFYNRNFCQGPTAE

[3] = Permeability of compound across apical to basolateral side in human Caco-2 cells; type: ADME, cell-based; conditions: read-out: permeability
[4] = Permeability of compound across basolateral to apical side in human Caco-2 cells; type: ADME, cell-based; conditions: read-out: permeability
[5] = Drug concentration in Balb/c mouse at […], iv measured after 5 min by LC-MS analysis; type: ADME, organism-based; conditions: in vivo, dose 0.15 mg/kg, read-out: Drug uptake
[6] = Clearance in Balb/c mouse at 0.5 mg/kg, iv measured after 2 hrs by LC-MS analysis; type: ADME, organism-based; conditions: in vivo
[7] = AUClast in Balb/c mouse at 0.5 mg/kg, iv measured after 2 hrs by LC-MS analysis; type: ADME, organism-based; design: dose 0.5 mg/kg, time 2 hrs, route iv; conditions: in vivo
CT26 = assay: Antitumor activity against mouse CT26 cells implanted in Balb/cAnNHsd mouse administered intraperitoneally once a week for 4 weeks in the presence of aPD1 antibody; type: functional; conditions: dose lower […], dose upper […], route ip

- Stability [1]: 75%
- EC50 (Blood): 90 pM
- EC [2]: > 5 µM
- Papp A→B [3]: 1.4 ×10⁻⁶ cm/s
- Papp B→A [4]: 10.9 ×10⁻⁶ cm/s
- concentration at 5 min [5]: 85 nM
- clearance [6]: 160 mL/min/kg
- AUC(0-t) at 2 h [7]: 0.183 µM·h
SMILES: CCC[C@@H](CCO)Nc1nc(N)nc2cnn(Cc3ccc(CNC4CCOCC4)cc3OC)c12
- Activity (CT26): Dose-Dependent Effect
